This assay has as its target CsTMR (triphenylmethane reductase) (Citrobacter sp. MY-5, UniProt Q2TNI4). Put plainly: decolorization in bienzyme fed-batch system; OD616 assay. Type of assay: biochemical. Particulars: glucose 200 mM, NAD 1 mM, malachite green 3 µM, BzGDH for NADH regeneration, 25 °C; OD616 assay: 200 µM NADH, 20 µM malachite green, pH 7.0.

SMILES strings stand for the structures.

CsTMR (triphenylmethane reductase), sequence (Q2TNI4 entry or part of it): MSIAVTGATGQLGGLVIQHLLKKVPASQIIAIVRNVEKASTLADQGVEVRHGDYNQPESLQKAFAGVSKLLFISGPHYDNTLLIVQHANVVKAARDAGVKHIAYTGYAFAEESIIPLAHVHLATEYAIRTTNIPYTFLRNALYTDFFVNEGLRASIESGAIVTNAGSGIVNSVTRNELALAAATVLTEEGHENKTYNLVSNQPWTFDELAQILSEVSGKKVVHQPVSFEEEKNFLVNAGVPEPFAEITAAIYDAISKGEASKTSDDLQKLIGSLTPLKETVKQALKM

For the molecule `CN(C)c1ccc(C(=C2C=CC(=[N+](C)C)C=C2)c2ccccc2)cc1` [malachite green], the “decolorization in bienzyme fed-batch system; OD616 assay” value is listed as “The activity of CsTMR was assayed by monitoring the OD616 of malachite green”.
